# In patent US11331290B2, “Niclosamide for the treatment of cancer metastasis” (Max-Delbrück-Centrum für Molekulare Medizin in der …, priority 2011, dated 2022):
# System: HCT116-CMVp-LUC cells
# Assay: HCT116-CMVp-LUC intrasplenic xenograft: liver metastasis, tumor growth, overall survival
# Format: in vivo, mice
# Settings: for median survival: control 24 days
# Method: All experiments were performed in accordance with the UKCCCR guidelines and approved by the responsible local authorities (State Office of Health and Social Affairs, Berlin, Germany). HCT116-CMVp-LUC cells (3×10^6 cells per mouse, resuspended in 50 μL PBS) were intrasplenically transplanted into 6-week-old female nonobese diabetic-severe combined immunodeficiency (NOD-SCID) mice. Mice were randomly assigned to 3 groups and reatment of mice started 24 hours after cell transplantation. Mice of the control group (n=9) were treated with daily doses of solvent. Mice of the second group (n=9) were daily treated intraperitoneally with 20 mg per kg niclosamide. Mice of the third group (n=9) were treated intraperitoneally with two doses of 15 mg per kg niclosamide per day. The experimental endpoint was reached when mice appeared moribund and/or the spleen tumor was palpable. This was the case with the majority of control mice on day 24. For long-term in vivo experiments mice randomly assigned to 3 groups. Mice of the control group (n=6) were treated intraperitoneally with daily doses of solvent. Mice of the second group (n=6) were daily treated intraperitoneally with 20 mg per kg niclosamide. Mice of the third group (n=6) were daily treated intraperitoneally for 24 days with 20 mg per kg niclosamide and for the residual days with solvent. Mice were killed by cervical dislocation when tumor reached the maximum in accordance with the local authorities.
# Spleen (as the transplantation site) and liver (as a metastasis target organ) were removed. The amount of S100A4 mRNA in the tumor was determined by Trizol RNA isolation of tumor cryosections and quantitative real-time RT-PCR. The level of metastasis was evaluated by scoring. For each liver, a score was calculated as the sum of the volumes of the individual metastases. For each metastasis the formula [width2]×length was applied.
# For in vivo luminescence imaging mice were anesthetized with 35 mg per kg Hypnomidate (Jassen-Cilag, Neuss, Germany) and received intraperitoneally 150 mg per kg D-luciferin (Biosynth, Staad, Switzerland) dissolved in sterile PBS. Imaging was performed with the NightOWL LB 981 system (Berthold Technologies, Bad Wildbad, Germany) with exposure times of 1 second and 20 seconds. ImageJ version 2.3 was used for color coding of signal intensity (presenting a 256 grayscale) and overlay pictures.
# All calculations and statistical analyses were performed with GraphPad Prism version 4.01. Student t test was used for comparison of only two groups. One-way analysis of variance (ANOVA) was applied for comparing the control group with several treated groups followed by Bonferroni post hoc multiple comparisons. In cell cytotoxicity assay the half-maximal effective concentration to which cell viability was reduced to 50% (EC50) values were calculated by sigmoidal dose-response curve fit of x=log(x) transformed data. Kaplan-Meier analysis was used to plot overall survival and differences in curves were analyzed by Logrank test. All tests were two-sided, and P values less than 0.05 were considered to be statistically significant. If not stated otherwise, means are reported with 95% confidence interval.
# (A) In vivo luminescence imaging of metastasis under niclosamide treatment. HCT116-CMVp-LUC cells stably expressing firefly luciferase (LUC) were intrasplenically transplanted into mice (per group n=4) followed by daily intraperitoneal treatment with 20 mg per kg niclosamide. For luminescence imaging, mice were anesthetized at the indicated days and received intraperitoneally D-luciferin. Exposure time for lateral and ventral imaging was 20 seconds per picture. In situ imaging and imaging of isolated organs was performed for 1 second per picture exposure time. Signal intensity of grayscale images (256 scale) were color coded (from low to high signal intensity: blue, green, yellow, red, white) and overlayed with bright field picture. […]
smiles,measurement,setting,value
"O=C(Nc1ccc([N+](=O)[O-])cc1Cl)c1cc(Cl)ccc1O [niclosamide, 2′,5-dichloro-4′-nitrosalicylanilide]","liver metastasis score, mean % of control","20 mg per kg daily intraperitoneally, 24 days",37.9%
same,"liver metastasis signal, in vivo luminescence imaging","20 mg per kg daily intraperitoneally, day 24",No or only tiny liver metastasis signals
same,size of liver metastases,"20 mg per kg i.p., continuously and discontinuously, vs solvent-treated animals",clearly reduced
same,spleen tumor growth,"20 mg per kg i.p., either continuously or discontinuously, vs solvent-treated mice",clearly delayed
same,"liver metastasis score, mean % of control","2×15 mg per kg per day intraperitoneally, 24 days",36.1%
same,"liver metastasis, mean difference control vs treatment",continuous treatment,89.1%
same,median survival ratio control vs treatment,continuous treatment,0.56
same,"liver metastasis score, mean % of control",continuous treatment (20 mg per kg i.p. daily),10.9%
same,median survival,continuous treatment: 20 mg per kg i.p. daily,43 days
same,"liver metastasis, mean difference control vs treatment",discontinuous treatment,65.1%
same,median survival ratio control vs treatment,discontinuous treatment,0.52
same,"liver metastasis score, mean % of control","discontinuous treatment (20 mg per kg i.p. for 24 days, then solvent)",34.9%
same,median survival,"discontinuous treatment: 20 mg per kg i.p. daily for 24 days, then solvent",46.5 days
